The compounds below were run against T1, FGFR-1 (Homo sapiens, UniProt P11362) (assay: FGFR-1 TR-FRET biochemical assay). Settings: 0.6 uM ATP, 5 nM FGFR1-GST; bounds given in nM.
T1 construct: GST; made in house
Protocol: FGFR-1TR-FRET Biochemical Assay
The FGFR-1 Assay was performed on half well 96-well opaque plates (Costar 3915) in a LANCE format. LANCE is a homogenous time resolved fluormetry based application available through Perkin Elmer. For this assay, 50 uL reactions were set up using: 0.6 uM ATP (Sigma), 25 nM poly GT-biotin (CIS BIO International), 2 nM Eu-labelled phospho-Tyr Ab (PY20 PerkinElmer), 10 nM Streptavidin-APC (Perkin Elmer), 5 nM FGFR1-GST (generated by DRT, Bayer Healthcare), 1% DMSO, 50 mM HEPES pH 7.5, 10 mM MgCl2, 0.1 mM EDTA, 0.015% Brij, 0.1 mg/ml BSA, 0.1% B-mercaptoethanol. All reactions were initiated with the addition of enzyme and were left to incubate for one hour at room temperature. Time-resolved fluorescence was then read on a Perkin Elmer VictorV Multilabel counter. The reading protocol uses an excitation wavelength at 340 nm and emission reads at both 615 and 665 nm. Signal was calculated as a ratio: (Flourescence at 665 nm/Flourescence at 615 nM)*10000 for each well. The background control used for this assay is the signal produced with all assay components excluding ATP. For IC50 generation, compounds were added prior to the enzyme initiation. A 50-fold stock plate was made with compounds serially diluted 1:5 in a 50% DMSO/50% dH2O solution. A 1 μL addition of the stock to the assay wells gave final compound concentrations ranging from 10 μM-0.128 nM in 1% DMSO. The data were expressed as percent inhibition: % inhibition=100−((Signal with inhibitor−background)/(Signal without inhibitor−background))*100.

T1 sequence (P11362 22-822): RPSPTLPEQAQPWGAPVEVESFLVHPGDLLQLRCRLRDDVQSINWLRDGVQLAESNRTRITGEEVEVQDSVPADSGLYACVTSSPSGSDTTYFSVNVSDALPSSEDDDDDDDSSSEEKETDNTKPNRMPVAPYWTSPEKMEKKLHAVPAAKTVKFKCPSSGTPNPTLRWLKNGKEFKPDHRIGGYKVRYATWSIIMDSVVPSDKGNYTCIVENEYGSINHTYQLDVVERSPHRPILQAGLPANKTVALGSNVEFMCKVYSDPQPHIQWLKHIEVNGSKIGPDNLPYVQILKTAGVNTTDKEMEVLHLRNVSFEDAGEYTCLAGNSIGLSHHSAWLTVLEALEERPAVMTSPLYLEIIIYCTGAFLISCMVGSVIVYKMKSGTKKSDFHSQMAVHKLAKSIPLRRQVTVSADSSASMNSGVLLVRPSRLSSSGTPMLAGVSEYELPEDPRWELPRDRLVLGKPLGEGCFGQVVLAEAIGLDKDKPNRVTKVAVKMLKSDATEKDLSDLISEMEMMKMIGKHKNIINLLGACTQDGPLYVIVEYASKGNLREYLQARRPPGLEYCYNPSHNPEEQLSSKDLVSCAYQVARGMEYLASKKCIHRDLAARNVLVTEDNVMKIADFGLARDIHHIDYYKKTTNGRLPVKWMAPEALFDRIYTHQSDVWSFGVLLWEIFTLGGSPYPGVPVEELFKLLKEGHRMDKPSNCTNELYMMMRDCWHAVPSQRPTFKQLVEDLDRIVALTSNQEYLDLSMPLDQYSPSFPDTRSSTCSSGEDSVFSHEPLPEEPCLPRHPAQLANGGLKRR

| Compound | IC50 |
| --- | --- |
| Nc1ncnn2c(CN3CCOCC3)cc(-c3ccc(NC(=O)Nc4ccc(Cl)cn4)cc3)c12 [Example 63, N-{4-[4-amino-7-(morpholin-4-ylmethyl)pyrrolo[2,1-f][1,2,4]triazin-5-yl]phenyl}-N′-(5-chloropyridin-2-yl)urea] | > 100 nM |
| Nc1ncnn2c(CN3CCNC(=O)C3)cc(-c3ccc(NC(=O)Nc4cc(C(F)(F)F)ccc4F)c(F)c3)c12 [Example 40, N-(4-{4-amino-7-[(3-oxopiperazin-1-yl)methyl]pyrrolo[2,1-f][1,2,4]triazin-5-yl}-2-fluorophenyl)-N′-[2-fluoro-5-(trifluoromethyl)phenyl]urea] | < 10 nM |
| Nc1ncnn2c(C3CCN(C(=O)CO)CC3)cc(-c3ccc(NC(=O)Nc4cc(C(F)(F)F)ccc4F)c(F)c3)c12 [Example 114, N-4-[4-amino-7-(1-glycoloylpiperidin-4-yl)pyrrolo[2,1-f][1,2,4]triazin-5-yl]-2-fluorophenyl-N′-[2-fluoro-5-(trifluoromethyl)phenyl]urea] | < 10 nM |
| Cc1cc(NC(=O)Nc2cc(C(F)(F)F)ccc2F)c(F)cc1-c1cc(CN2CCOCC2)n2ncnc(N)c12 [Example 136, N-{4-[4-amino-7-(morpholin-4-ylmethyl)pyrrolo[2,1-f][1,2,4]triazin-5-yl]-2-fluoro-5-methylphenyl}-N′-[2-fluoro-5(trifluoromethyl)-phenyl]urea] | 10 to 100 nM |
| Nc1ncnn2c(CN3CCCOCC3)cc(-c3ccc(NC(=O)Nc4cc(C(F)(F)F)ccc4F)c(F)c3)c12 [Example 177, N-{4-[4-amino-7-(1,4-oxazepan-4-ylmethyl)pyrrolo[2,1-f][1,2,4]triazin-5-yl]-2-fluorophenyl}-N′-[2-fluoro-5-(trifluoromethyl)phenyl]urea] | < 10 nM |
| Nc1ncnn2c(C3CCNCC3)cc(-c3ccc(NC(=O)Nc4cc(C(F)(F)F)ccc4F)c(F)c3)c12 [Example 111, N-[4-(4-amino-7-piperidin-4-ylpyrrolo[2,1-f][1,2,4]-triazin-5-yl)-2-fluorophenyl]-N′-[2-fluoro-5-(trifluoromethyl)phenyl]urea] | < 10 nM |
| Nc1ncnn2c(CN3CCOCC3)cc(-c3ccc(NC(=O)Nc4cc(C(F)(F)F)ccn4)c(Cl)c3)c12 [Example 129, N-4-[4-amino-7-(morpholin-4-ylmethyl)pyrrolo[2,1-f][1,2,4]triazin-5-yl]-2-chlorophenyl-N′-[4-(trifluoromethyl)pyridin-2-yl]urea] | < 10 nM |
| Nc1ncnn2c(C3CCNC3)cc(-c3ccc(NC(=O)Nc4cc(C(F)(F)F)ccc4F)c(F)c3)c12 (stereo not drawn) [Example 200, N-[4-(4-amino-7-pyrrolidin-3-ylpyrrolo[2,1-f][1,2,4]triazin-5-yl)-2-fluorophenyl]-N′-[2-fluoro-5-(trifluoromethyl)phenyl]urea] | 10 to 100 nM |
| Cc1ccnc(NC(=O)Nc2ccc(-c3cc(CN4CCOCC4)n4ncnc(N)c34)cc2Cl)c1 [Example 133, N-4-[4-amino-7-(morpholin-4-ylmethyl)pyrrolo[2,1-f][1,2,4]triazin-5-yl]-2-chlorophenyl-N′-(4-methylpyridin-2-yl)urea] | 10 to 100 nM |
| Nc1ncnn2c(C(=O)NCC3CNCCO3)cc(-c3ccc(NC(=O)Nc4cccc(C(F)(F)F)c4)c(F)c3)c12 (stereo not drawn) [Example 293, 4-amino-5-{3-fluoro-4-[({[3-(trifluoromethyl)phenyl]-amino}carbonyl)amino]phenyl}-N-(morpholin-2-ylmethyl)pyrrolo[2,1-f][1,2,4]-triazine-7-carboxamide] | 10 to 100 nM |
| Nc1ncnn2c(CCO)cc(-c3ccc(NC(=O)Nc4cc(C(F)(F)F)ccc4F)c(F)c3)c12 [Example 220, N-{4-[4-amino-7-(2-hydroxyethyl)pyrrolo[2,1-f][1,2,4]triazin-5-yl]-2-fluorophenyl}-N′-[2-fluoro-5-(trifluoromethyl)phenyl]urea] | < 10 nM |
| CC(C)(C)NC(=O)N1CCC(c2cc(-c3ccc(NC(=O)Nc4cc(C(F)(F)F)ccn4)c(F)c3)c3c(N)ncnn23)CC1 [Example 124, 4-4-amino-5-[3-fluoro-4-([4-(trifluoromethyl)pyridin-2-yl]carbamoylamino)phenyl]pyrrolo[2,1-f][1,2,4]triazin-7-yl-N-tert-butylpiperidine-1-carboxamide] | 10 to 100 nM |
| CN1CCN(CCc2cc(-c3ccc(NC(=O)Nc4cc(C(F)(F)F)ccc4F)c(F)c3)c3c(N)ncnn23)CC1 [Example 214, N-(4-{4-amino-7-[2-(4-methylpiperazin-1-yl)ethyl]pyrrolo[2,1-f][1,2,4]triazin-5-yl}-2-fluorophenyl)-N′-[2-fluoro-5-(trifluoromethyl)phenyl]urea] | < 10 nM |
| CN(C)C(=O)N1CCC(c2cc(-c3ccc(NC(=O)Nc4cc(C(F)(F)F)ccc4F)c(F)c3)c3c(N)ncnn23)C1 (stereo not drawn) [Example 203, 3-{4-amino-5-[3-fluoro-4-({[2-fluoro-5-(trifluoromethyl)phenyl]carbamoyl}amino)phenyl]pyrrolo[2,1-f][1,2,4]triazin-7-yl}-N,N-dimethylpyrrolidine-1-carboxamide] | < 10 nM |

Results, then the compound that gave them:

| IC50 | Compound |
| --- | --- |
| < 10 nM | Nc1ncnn2c(CCCN3CCOCC3)cc(-c3ccc(NC(=O)Nc4cc(C(F)(F)F)ccc4F)c(F)c3)c12 [Example 109, N-{4-[4-amino-7-(3-morpholin-4-ylpropyl)pyrrolo[2,1-f][1,2,4]triazin-5-yl]-2-fluorophenyl}-N′-[2-fluoro-5-(trifluoromethyl)phenyl]urea] |
| < 10 nM | CC(=O)N1CCN(Cc2cc(-c3ccc(NC(=O)Nc4cc(C(F)(F)F)ccc4F)c(F)c3)c3c(N)ncnn23)CC1 [Example 89, N-(4-{7-[(4-acetylpiperazin-1-yl)methyl]-4-aminopyrrolo[2,1-f][1,2,4]triazin-5-yl}-2-fluorophenyl)-N′-[2-fluoro-5-(trifluoromethyl)phenyl]urea] |
| 10 to 100 nM | Nc1ncnn2c(CC3CNCCO3)cc(-c3ccc(NC(=O)Nc4cccc(C(F)(F)F)c4)c(F)c3)c12 (stereo not drawn) [Example 301, N-{4-[4-amino-7-(morpholin-2-ylmethyl)pyrrolo[2,1-f][1,2,4]triazin-5-yl]-2-fluorophenyl}-N′-[3-(trifluoromethyl)phenyl]urea] |
| > 100 nM | CC(C)(C)c1ccccc1NC(=O)Nc1ccc(-c2cc(CN3CCOCC3)n3ncnc(N)c23)cc1 [Example 49, N-{4-[4-amino-7-(morpholin-4-ylmethyl)pyrrolo[2,1-f][1,2,4]triazin-5-yl]phenyl}-N′-(2-tert-butylphenyl)urea] |
| > 100 nM | Nc1ncnn2c(CN3CCOCC3)cc(-c3cc(F)c(NC(=O)Nc4cc(C(F)(F)F)ccc4F)c(F)c3)c12 [Example 7, N-{4-[4-amino-7-(morpholin-4-ylmethyl)-pyrrolo[2,1-f][1,2,4]triazin-5-yl]-2,6-difluorophenyl}-N′-[Z-fluoro-5-(trifluoro-methyl)phenyl]urea] |
| 10 to 100 nM | CC(=O)c1cc(-c2ccc(NC(=O)Nc3cc(C(F)(F)F)ccc3F)cc2)c2c(N)ncnn12 [Example 100, N-[4-(7-acetyl-4-aminopyrrolo[2,1-f][1,2,4]triazin-5-yl)phenyl]-N′-[2-fluoro-5-(trifluoromethyl)phenyl]urea] |
| < 10 nM | Nc1ncnn2c(CCCN3CCOCC3)cc(-c3ccc(NC(=O)Nc4cc(C(F)(F)F)ccc4F)cc3)c12 [Example 108, N-{4-[4-amino-7-(3-morpholin-4-ylpropyl)pyrrolo[2,1-f][1,2,4]triazin-5-yl]phenyl}-N′-[2-fluoro-5-(trifluoromethyl)phenyl]urea] |

Same assay, conditions: upper bound of the bin 'greater than 100 nM but less than 1 μM' (lower bound in E1)

| IC50 | Compound |
| --- | --- |
| < 1000 nM | Nc1ncnn2c(CN3CCOCC3)cc(-c3ccc(NC(=O)Nc4ccc(Cl)cn4)cc3)c12 [Example 63, N-{4-[4-amino-7-(morpholin-4-ylmethyl)pyrrolo[2,1-f][1,2,4]triazin-5-yl]phenyl}-N′-(5-chloropyridin-2-yl)urea] |
| < 1000 nM | CC(C)(C)c1ccccc1NC(=O)Nc1ccc(-c2cc(CN3CCOCC3)n3ncnc(N)c23)cc1 [Example 49, N-{4-[4-amino-7-(morpholin-4-ylmethyl)pyrrolo[2,1-f][1,2,4]triazin-5-yl]phenyl}-N′-(2-tert-butylphenyl)urea] |
| < 1000 nM | Nc1ncnn2c(CN3CCOCC3)cc(-c3cc(F)c(NC(=O)Nc4cc(C(F)(F)F)ccc4F)c(F)c3)c12 [Example 7, N-{4-[4-amino-7-(morpholin-4-ylmethyl)-pyrrolo[2,1-f][1,2,4]triazin-5-yl]-2,6-difluorophenyl}-N′-[Z-fluoro-5-(trifluoro-methyl)phenyl]urea] |
